From patent US10035801B2, “Pyrazolo compounds and uses thereof” (CONSTELLATION PHARMACEUTICALS, INC., priority 2013, dated 2018) come the findings set out here.

The assay addresses T1, KDM5A (Homo sapiens, UniProt P29375).
T1 construct: Full length KDM5A enzyme was expressed and purified inhouse; made in house
In words: KDM5 enzyme assay, KDM5A HTRF (Example 463). The following applies: compounds of Examples 1-432; read-out: Example 463 Assay KDM5A HTRF IC50. It counts as biochemical.

SMILES strings stand for the structures.

T1 sequence (P29375 whole entry): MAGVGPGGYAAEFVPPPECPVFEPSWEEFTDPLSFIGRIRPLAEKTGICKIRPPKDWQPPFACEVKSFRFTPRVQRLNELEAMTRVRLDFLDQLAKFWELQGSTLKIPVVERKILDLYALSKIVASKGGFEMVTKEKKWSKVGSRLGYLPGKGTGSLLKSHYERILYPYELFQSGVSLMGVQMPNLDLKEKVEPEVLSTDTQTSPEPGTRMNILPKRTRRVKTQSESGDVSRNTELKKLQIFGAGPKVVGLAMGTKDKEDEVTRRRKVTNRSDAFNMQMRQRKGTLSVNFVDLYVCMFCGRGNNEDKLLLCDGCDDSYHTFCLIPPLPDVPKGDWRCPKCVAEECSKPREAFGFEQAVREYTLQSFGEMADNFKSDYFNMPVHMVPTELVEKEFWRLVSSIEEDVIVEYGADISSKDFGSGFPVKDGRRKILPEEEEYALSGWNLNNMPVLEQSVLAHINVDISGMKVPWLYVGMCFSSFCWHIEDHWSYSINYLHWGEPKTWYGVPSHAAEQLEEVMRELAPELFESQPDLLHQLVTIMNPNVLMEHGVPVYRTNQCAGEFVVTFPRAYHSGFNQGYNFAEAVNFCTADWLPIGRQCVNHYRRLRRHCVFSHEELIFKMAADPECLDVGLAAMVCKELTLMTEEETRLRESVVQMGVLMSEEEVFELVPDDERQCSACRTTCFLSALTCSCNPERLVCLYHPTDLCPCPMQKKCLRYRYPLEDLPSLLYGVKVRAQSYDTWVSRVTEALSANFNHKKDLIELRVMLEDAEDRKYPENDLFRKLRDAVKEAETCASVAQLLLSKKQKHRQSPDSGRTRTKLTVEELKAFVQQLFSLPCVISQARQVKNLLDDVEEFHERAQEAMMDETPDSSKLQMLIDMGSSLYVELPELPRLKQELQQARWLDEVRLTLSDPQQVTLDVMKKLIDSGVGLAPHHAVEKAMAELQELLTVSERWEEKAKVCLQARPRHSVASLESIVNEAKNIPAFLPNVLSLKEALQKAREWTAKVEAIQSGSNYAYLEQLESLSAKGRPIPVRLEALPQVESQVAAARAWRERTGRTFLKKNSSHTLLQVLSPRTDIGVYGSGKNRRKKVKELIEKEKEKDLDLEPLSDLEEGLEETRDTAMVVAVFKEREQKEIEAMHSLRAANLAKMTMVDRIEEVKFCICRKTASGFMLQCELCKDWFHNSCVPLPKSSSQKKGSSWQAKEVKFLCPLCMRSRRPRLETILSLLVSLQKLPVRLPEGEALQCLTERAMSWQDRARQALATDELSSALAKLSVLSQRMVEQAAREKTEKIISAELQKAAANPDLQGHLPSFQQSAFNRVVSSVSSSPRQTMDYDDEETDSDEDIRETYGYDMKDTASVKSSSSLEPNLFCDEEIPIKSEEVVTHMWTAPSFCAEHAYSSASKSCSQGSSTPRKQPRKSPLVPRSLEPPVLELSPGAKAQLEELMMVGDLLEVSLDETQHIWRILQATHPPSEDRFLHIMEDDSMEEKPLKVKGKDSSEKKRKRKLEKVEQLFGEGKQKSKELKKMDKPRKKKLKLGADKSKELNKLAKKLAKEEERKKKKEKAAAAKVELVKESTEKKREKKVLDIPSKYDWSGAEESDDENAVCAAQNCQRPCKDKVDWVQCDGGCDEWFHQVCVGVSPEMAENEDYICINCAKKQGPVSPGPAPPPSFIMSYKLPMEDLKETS

On to `COC(=O)c1c(-c2ccccc2)[nH]c2c(C#N)cnn2c1=O` [Example 112], for which the IC50 stood at 330 nM.
Then `CC(C)c1c(-c2cnn(Cc3cccc(-c4ccccc4)c3)c2)[nH]c2c(C#N)cnn2c1=O` [Example 113], with 6 nM; and `CC(C)c1c(-c2cnn(CCc3ccccc3)c2)[nH]c2c(C#N)cnn2c1=O` [Example 114], with 5.5 nM; and `COc1ccccc1Cn1cc(-c2[nH]c3c(C#N)cnn3c(=O)c2C(C)C)cn1` [Example 115], with 6 nM.
Then `COc1ccc(Cn2cc(-c3[nH]c4c(C#N)cnn4c(=O)c3C(C)C)cn2)cc1` [Example 116], with 8 nM; and `CC(C)c1c(-c2cnn(C(C)(C)C)c2)[nH]c2c(C#N)cnn2c1=O` [Example 117], with 14 nM; and `Cc1ccc(-c2[nH]c3c(C#N)cnn3c(=O)c2C(C)C)cc1C` [Example 118], with 15 nM.
Then `CCOc1ccc(-c2[nH]c3c(C#N)cnn3c(=O)c2C(C)C)cc1Cl` [Example 119], with 19 nM.
On to `COc1ccc(-c2[nH]c3c(C#N)cnn3c(=O)c2C(C)C)cc1C` [Example 120], for which the IC50 turned out to be 19 nM.
Then `Cc1nc2cc(-c3[nH]c4c(C#N)cnn4c(=O)c3C(C)C)ccc2s1` [Example 121], with 10 nM.
Then `CC(C)c1c(-c2cnn(Cc3ccccc3Oc3ccccc3)c2)[nH]c2c(C#N)cnn2c1=O` [Example 122], with 13 nM.
Then `CC(C)c1c(-c2cnn(S(=O)(=O)c3ccccc3)c2)[nH]c2c(C#N)cnn2c1=O` [Example 123], with 8 nM; and `CC(C)c1c(-c2cnn(C(=O)c3ccccc3)c2)[nH]c2c(C#N)cnn2c1=O` [Example 124], with 11 nM; and `CC(C)c1c(-c2cnn(C(c3ccccc3)c3ccccc3)c2)[nH]c2c(C#N)cnn2c1=O` [Example 125], with 30 nM.
Turning to `CC(C)c1c(-c2cnn(Cc3ccccc3-c3ccccc3)c2)[nH]c2c(C#N)cnn2c1=O` [Example 126], the half-maximal inhibitory concentration (IC50) is 8 nM.
Then `CC(C)c1c(-c2cnn(CC3CCCCC3)c2)[nH]c2c(C#N)cnn2c1=O` [Example 127], with 13 nM; and `CC(C)c1c(-c2cnn(Cc3cccnc3)c2)[nH]c2c(C#N)cnn2c1=O` [Example 128], with 16 nM.
Then `C=Cc1c(-c2ccccc2)[nH]c2c(C#N)cnn2c1=O` [Example 129], with 23 nM.
Then `CC(C)c1c(-c2cc3ccccc3o2)[nH]c2c(C#N)cnn2c1=O` [Example 130], with 4.5 nM.
Consider `CC(C)c1c(/C=C/c2ccccc2)[nH]c2c(C#N)cnn2c1=O` [Example 131], for which the IC50 was found to be 18 nM.
With `CCc1ccc(-c2[nH]c3c(C#N)cnn3c(=O)c2C(C)C)o1` [Example 132], the IC50 is 7.2 nM.
As to `COCCn1cc(-c2[nH]c3c(C#N)cnn3c(=O)c2C(C)C)cn1` [Example 133], the IC50 worked out at 11 nM.
Then `CC(C)c1c(-c2cnn(Cc3cccc4ccccc34)c2)[nH]c2c(C#N)cnn2c1=O` [Example 134], with 5.5 nM; and `CC(C)c1c(-c2cnn(Cc3ccc(-c4ccccc4)cc3)c2)[nH]c2c(C#N)cnn2c1=O` [Example 135], with 5.8 nM.
Then `CC(C)c1c(-c2cccc(Oc3ccccc3)c2)[nH]c2c(C#N)cnn2c1=O` [Example 136], with 9 nM; and `CC(C)c1c(C#Cc2ccccc2)[nH]c2c(C#N)cnn2c1=O` [Example 137], with 12 nM; and `CC(C)c1c(-c2ccc(Cl)c(Cl)c2)[nH]c2c(C#N)cnn2c1=O` [Example 138], with 15 nM.
As for `COc1ccc(-c2[nH]c3c(C#N)cnn3c(=O)c2C(C)C)cc1Cl` [Example 139], the 50% inhibitory concentration (IC50) was 13 nM.
As to `COc1cc(-c2[nH]c3c(C#N)cnn3c(=O)c2C(C)C)ccc1C` [Example 140], the concentration for half-maximal inhibition (IC50) was 12 nM.
Then `CC(C)c1c(-c2cnn(Cc3cscn3)c2)[nH]c2c(C#N)cnn2c1=O` [Example 141], with 9.3 nM; and `CC(C)c1c(-c2ccc3[nH]ncc3c2)[nH]c2c(C#N)cnn2c1=O` [Example 142], with 12 nM.
Turning to `COc1ccc(-c2[nH]c3c(C#N)cnn3c(=O)c2C(C)C)cc1OC` [Example 143], the IC50 worked out at 25 nM.
Regarding `COc1c(C)cc(-c2[nH]c3c(C#N)cnn3c(=O)c2C(C)C)cc1C` [Example 144], the 50% inhibitory concentration (IC50) was 19 nM.
For `CC(C)c1c(-c2cnn(C3COC3)c2)[nH]c2c(C#N)cnn2c1=O` [Example 145], the IC50 was determined as 17 nM.
Then `CC(C)c1c(-c2cnn(CCN(C)C)c2)[nH]c2c(C#N)cnn2c1=O` [Example 149], with 6 nM.
Then `Cc1ccc(-c2[nH]c3c(C#N)cnn3c(=O)c2C(C)C)cc1C#N` [Example 150], with 14 nM; and `CC(C)c1c(-c2ccc3c(c2)OCO3)[nH]c2c(C#N)cnn2c1=O` [Example 151], with 17 nM.
Then `CC(C)c1c(-c2ccc3c(c2)CCO3)[nH]c2c(C#N)cnn2c1=O` [Example 152], with 14 nM.
Regarding `CC(C)c1c(-c2cnn(Cc3cccc(F)c3)c2)[nH]c2c(C#N)cnn2c1=O` [Example 154], the IC50 worked out at 6 nM.
Then `CC(C)c1c(-c2cnn(Cc3cccs3)c2)[nH]c2c(C#N)cnn2c1=O` [Example 155], with 9.8 nM; and `CC(C)c1c(-c2cnn(CC(F)(F)F)c2)[nH]c2c(C#N)cnn2c1=O` [Example 156], with 22 nM.
Then `CC(C)c1c(-c2cnn(Cc3cccc(Cl)c3)c2)[nH]c2c(C#N)cnn2c1=O` [Example 157], with 7 nM; and `CC(C)Cn1cc(-c2[nH]c3c(C#N)cnn3c(=O)c2C(C)C)cn1` [Example 158], with 15 nM; and `CC(C)c1c(-c2cnn(CCC(F)(F)F)c2)[nH]c2c(C#N)cnn2c1=O` [Example 159], with 35 nM.
Then `CC(C)c1c(-c2cnn(C(F)F)c2)[nH]c2c(C#N)cnn2c1=O` [Example 160], with 19 nM; and `CC(C)c1c(-c2cnn(CCC#N)c2)[nH]c2c(C#N)cnn2c1=O` [Example 161], with 13 nM.
Regarding `CCc1c(-c2ccoc2)n(C)c2c(C#N)cnn2c1=O` [Example 162], the IC50 is 64 nM.
Then `CC(C)c1c(-c2cccc(F)c2)n(C)c2c(C#N)cnn2c1=O` [Example 163], with 97 nM.
Then `CC(C)c1c(-c2cccc(C(F)(F)F)c2)n(C)c2c(C#N)cnn2c1=O` [Example 164], with 150 nM.
Then `COc1cccc(-c2c(C(C)C)c(=O)n3ncc(C#N)c3n2C)c1` [Example 165], with 61 nM; and `CC(C)c1c(-c2cccc(C#N)c2)n(C)c2c(C#N)cnn2c1=O` [Example 166], with 200 nM.
As for `CC(C)c1c(-c2cnn(C)c2)n(C)c2c(C#N)cnn2c1=O` [Example 167], the IC50 turned out to be 100 nM.
Then `CC(C)c1c(-c2cccs2)n(C)c2c(C#N)cnn2c1=O` [Example 168], with 46 nM; and `CC(C)c1c(-c2ccsc2)n(C)c2c(C#N)cnn2c1=O` [Example 169], with 47 nM.
On to `CC(C)c1c(C2=CCOC2)n(C)c2c(C#N)cnn2c1=O` [Example 170], for which the IC50 is 210 nM.
Then `CC(C)c1c(-c2ccn[nH]2)n(C)c2c(C#N)cnn2c1=O` [Example 171], with 37 nM; and `CC(C)c1c(-c2ccc(C(F)(F)F)cc2)n(C)c2c(C#N)cnn2c1=O` [Example 172], with 140 nM; and `COc1ccc(-c2c(C(C)C)c(=O)n3ncc(C#N)c3n2C)cc1` [Example 173], with 39 nM.
As to `CC(C)c1c(-c2ccccc2F)n(C)c2c(C#N)cnn2c1=O` [Example 174], the IC50 worked out at 81 nM.
Then `CC(C)c1c(-c2cccc(-c3ccccc3)c2)n(C)c2c(C#N)cnn2c1=O` [Example 175], with 43 nM.
As for `CCc1c(-c2cccc(-c3ccccc3)c2)n(C)c2c(C#N)cnn2c1=O` [Example 176], the IC50 is 52 nM.
Then `CCc1c(-c2ccco2)n(C)c2c(C#N)cnn2c1=O` [Example 177], with 38 nM; and `CC(C)c1c(-c2ccco2)n(C)c2c(C#N)cnn2c1=O` [Example 178], with 43 nM.
Then `C=Cc1c(C(C)C)c(=O)n2ncc(C#N)c2n1C` [Example 179], with 35 nM; and `C=C(C)c1c(C(C)C)c(=O)n2ncc(C#N)c2n1C` [Example 180], with 61 nM.
Then `CC(C)c1c(-c2cnn(Cc3ccccc3)c2)n(C)c2c(C#N)cnn2c1=O` [Example 181], with 60 nM; and `CCc1c(-c2cnn(Cc3ccccc3)c2)n(C)c2c(C#N)cnn2c1=O` [Example 182], with 130 nM; and `CC(C)c1c(-c2ccc(F)cc2)n(C)c2c(C#N)cnn2c1=O` [Example 183], with 33 nM.
For the molecule `CC(C)c1c(-c2ccc(C#N)cc2)n(C)c2c(C#N)cnn2c1=O` [Example 184], the IC50 was determined as 56 nM.
Then `CC(C)c1c(-c2ccc(-c3ccccc3)o2)n(C)c2c(C#N)cnn2c1=O` [Example 185], with 20 nM; and `CC(C)c1c(-c2cn[nH]c2)n(C)c2c(C#N)cnn2c1=O` [Example 186], with 49 nM.
Then `CC(C)c1c(-c2cc(-c3ccccc3)co2)n(C)c2c(C#N)cnn2c1=O` [Example 187], with 750 nM; and `CC(C)c1c(-c2ccc(=O)n(C)c2)n(C)c2c(C#N)cnn2c1=O` [Example 188], with 240 nM.
Then `CCn1cc(-c2c(C(C)C)c(=O)n3ncc(C#N)c3n2C)cn1` [Example 189], with 160 nM; and `CC(C)c1c(-c2cc(C3CC3)co2)n(C)c2c(C#N)cnn2c1=O` [Example 190], with 57 nM; and `CCc1c(C)n(CC)c2c(C#N)cnn2c1=O` [Example 191], with 760 nM.
As for `CCCn1c(C)c(CC)c(=O)n2ncc(C#N)c12` [Example 192], the IC50 stood at 1500 nM.
Turning to `CCc1c(C)n(CC2CC2)c2c(C#N)cnn2c1=O` [Example 193], the IC50 came out at 860 nM.
Then `CCc1c(C)n(CCOC)c2c(C#N)cnn2c1=O` [Example 194], with 2300 nM; and `CCc1c(C)n(CCO)c2c(C#N)cnn2c1=O` [Example 195], with 2200 nM.
